Read-outs that look alike come from different tables or passages of the source.
How the values were obtained:
Aspergillus niger [1] = test: Aspergillus niger on PYM plates with EGTA in the inoculum (Example 13); assay type: cell-based; details: for Reduction in colony area / Colony area: 48 hours; for 48 hour count / 72 hour count: total for three plates
Experimental: A 4-millimolar solution of ethylene glycol tetraacetic acid (EGTA) was prepared by dissolving 15.2 milligrams of EGTA in 10 milliliters of Butterfield's buffer. Serial two-fold dilutions were prepared to provide solutions containing 2 millimolar and 1 millimolar EGTA, respectively. “EGTA”, as used in the Examples, refers to ethylene glycol-bis(2-aminoethylether)-N,N,N′,N′-tetraacetic acid (67-42-5) obtained from Sigma-Aldrich (St. Louis, Mo.). A suspension of Aspergillus niger was diluted and added to the solutions as described in Example 12 to provide final cell concentrations of approximately 5 cfu per ml. Three replicate devices were prepared by inoculating 1 milliliter of the mold suspensions to PYM plates according to the manufacturer's instructions. Images of the plates were obtained after 48 hours and 72 hours of incubation, respectively. […] The average colony size after 48 hours of incubation was determined by imaging the plates and analyzing the images as described above.

R. mucilaginosa = details: for Colony area (mean ± standard deviation): 91 hours
Experimental: (§1) Thin film culture devices were prepared as described above. Three yeast strains were serially diluted from a frozen stock to provide a final concentration of approximately 100 CFU per ml. The thin film culture devices were inoculated, incubated for 91 hours, imaged, and analyzed as described above.

[2] = system: Aspergillus niger (ATCC #16484); details: for Colony Size Reduction: 1 mM vs 0 mM EDTA
Experimental: Fat free skim milk was purchased from a local grocery store. 3.7 milligrams of disodium EDTA dihydrate was added to 10 milliliters of the fat-free skim milk to provide a final concentration of 1 millimolar EDTA. A suspension of Aspergillus niger (ATCC #16484) was diluted in Butterfields buffer to a concentration of approximately 500 colony forming units per milliliter. 100 microliters of the diluted suspension was added to the milk sample. After briefly vortexing, 1 milliliter of the milk sample containing the mold was used to inoculate PYM plates according to the manufacturer's instructions. The PYM plates were incubated at 30° C. for 48 hours, followed by imaging and colony size analysis as described above. A control sample (without milk) was also prepared in Butterfield's buffer.

Aspergillus niger [3] = system: Aspergillus niger
Experimental: A diluted suspension of Aspergillus niger was prepared as described in example 1. A 1 millimolar solution of EDTA was prepared by dissolving 3.7 milligrams of EDTA in 10 milliliters of Butterfield's buffer. The Aspergillus niger diluted suspension was added to the EDTA/Butterfield's to provide a cell concentration of approximately 5 cfu per milliliter. Five replicate devices were prepared by adding one milliliter of the inoculum to PYM plates according to the manufacturer's instructions. A set of control plates was prepared from a 5 cfu per ml solution of Aspergillus niger containing no EDTA.

C. guillermondi = details: for Colony area (mean ± standard deviation): 91 hours
Experimental: as §1

C. glabrata = details: for Colony area (mean ± standard deviation): 91 hours
Experimental: as §1

[4] = system: mold species shown in Table 7; details: for some species; EDTA concentrations higher than 1 wt % of the dry powder coatings
Experimental: The mold species shown in Table 7 were serially diluted, inoculated, incubated, imaged, and analyzed as described for the A. niger cultures.

[5] = EDTA at concentrations below 1%
[6] = EDTA concentrations higher than 1%

## O=C(O)CN(CCOCCOCCN(CC(=O)O)CC(=O)O)CC(=O)O [EGTA, ethylene glycol-bis(2-aminoethylether)-N,N,N′,N′-tetraacetic acid]
Aspergillus niger [1]; 1 mM EGTA vs 0 mM control
  Reduction in colony area: −9%
Aspergillus niger [1]; 1 mM EGTA
  Colony area: 24107 pixels
  48 hour count: 12
  72 hour count: 12
Aspergillus niger [1]; 2 mM EGTA vs 0 mM control
  Reduction in colony area: −43%
Aspergillus niger [1]; 2 mM EGTA
  Colony area: 15177 pixels
  48 hour count: 14
  72 hour count: 14
Aspergillus niger [1]; 4 mM EGTA vs 0 mM control
  Reduction in colony area: −78%
Aspergillus niger [1]; 4 mM EGTA
  Colony area: 5772 pixels
  48 hour count: 11
  72 hour count: 11

## disodium ethylenediamine tetraacetic acid dihydrate [EDTA]
R. mucilaginosa; 0.5% EDTA
  Colony area (mean ± standard deviation): 251 ± 95 pixels
R. mucilaginosa; 1% EDTA
  Colony area (mean ± standard deviation): 148 ± 76 pixels
R. mucilaginosa; 2.3% EDTA
  Colony area (mean ± standard deviation): 0 ± 0 pixels
R. mucilaginosa; 4.2% EDTA
  Colony area (mean ± standard deviation): 0 ± 0 pixels
R. mucilaginosa; [5]
  effect on colony size: not affected
R. mucilaginosa; [6]
  detection of colonies: not detected
[2]; Buffer Control (Butterfield's buffer, without milk), 48 hours
  Colony Area (1 mM EDTA): 3276
[2]; Buffer Control, 48 hours
  Colony Size Reduction: −91%
[2]; Skim Milk sample, 30° C. for 48 hours
  Colony Area (1 mM EDTA): 3789
[2]; Skim Milk sample, 48 hours
  Colony Size Reduction: −86%
Aspergillus niger [3]; 1 mM EDTA in inoculum, 48 hours
  Colony area: 1492 pixels
Aspergillus niger [3]; 1 mM EDTA in inoculum, 48 hr
  CFUs (48 hr): 15
Aspergillus niger [3]; 1 mM EDTA in inoculum, 72 hr
  CFUs (72 hr): 16
Aspergillus niger [3]; 1 mM EDTA, after 48 hours of incubation
  average colony diameter smaller than the control plates: approximately 20 fold
C. guillermondi; 0.5% EDTA
  Colony area (mean ± standard deviation): 490 ± 129 pixels
C. guillermondi; 1% EDTA
  Colony area (mean ± standard deviation): 201 ± 119 pixels
C. guillermondi; 2.3% EDTA
  Colony area (mean ± standard deviation): 381 ± 140 pixels
C. guillermondi; 4.2% EDTA
  Colony area (mean ± standard deviation): 162 ± 92 pixels
C. guillermondi; [5]
  effect on colony size: not affected
C. glabrata; 0.5% EDTA
  Colony area (mean ± standard deviation): 487 ± 300 pixels
C. glabrata; 1% EDTA
  Colony area (mean ± standard deviation): 308 ± 201 pixels
C. glabrata; 2.3% EDTA
  Colony area (mean ± standard deviation): 0 ± 0 pixels
C. glabrata; 4.2% EDTA
  Colony area (mean ± standard deviation): 0 ± 0 pixels
C. glabrata; [5]
  effect on colony size: not affected
C. glabrata; [6]
  detection of colonies: not detected
[4]
  delay in the appearance of visible colonies: a delay in the appearance of visible colonies was observed
